# Experimental data from US10155936B2, “Parkin ligase activation methods and compositions” (An2H Discovery Limited, priority 2014, dated 2018).
# Tests used:
# Parkin ligase [1] = biological target: T1, Parkin ligase (Homo sapiens, UniProt O60260); assay: Activity-based probe assay using a ubiquitin vinyl sulfone probe (TR-FRET); assay type: biochemical; conditions: heat activated Parkin, HA-Ub-VS probe, TR-FRET signal; FIG. 1, FIG. 2
# T1 construct: Enzyme: Parkin-His tagged 203 μM (10.5 mg/ml)
# T1 sequence (O60260 1-465): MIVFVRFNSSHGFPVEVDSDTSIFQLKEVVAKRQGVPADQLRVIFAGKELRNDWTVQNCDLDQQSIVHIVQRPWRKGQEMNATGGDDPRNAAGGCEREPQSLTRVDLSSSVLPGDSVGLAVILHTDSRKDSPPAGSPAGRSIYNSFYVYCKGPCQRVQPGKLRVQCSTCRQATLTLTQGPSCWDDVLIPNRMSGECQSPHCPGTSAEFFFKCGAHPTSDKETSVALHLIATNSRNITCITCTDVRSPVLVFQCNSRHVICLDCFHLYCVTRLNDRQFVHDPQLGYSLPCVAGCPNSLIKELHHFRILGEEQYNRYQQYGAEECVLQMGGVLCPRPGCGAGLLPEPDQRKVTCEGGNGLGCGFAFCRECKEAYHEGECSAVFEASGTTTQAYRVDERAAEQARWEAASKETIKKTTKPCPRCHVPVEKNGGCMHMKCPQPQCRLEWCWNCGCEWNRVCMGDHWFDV
# Description: A Ubiquitin vinyl sulfone probe can be used that irreversibly binds to the active site cysteine of Parkin ligase. Covalent attachment of the probe to the Parkin can be monitored by TR-FRET. Candidate activator compounds can be identified by increasing the activity of Parkin ligase due to an increase in TR-FRET signal. Screening for activating compounds can be distinguished from the controls as follows: • 100% activation signal=Heat activated Parkin+100 nM control activator in DMSO. 0% activation signal=Heat activated Parkin+DMSO only. Parkin activators can be identified by an increase of the 0% activation signal TR-FRET signal. […]
# (§1) Data Analysis: The Data can be read in CSV files. […]
# Parkin ligase [2] = biological target: T2, Parkin ligase (Homo sapiens, UniProt O60260); assay: Parkin pUB auto-ubiquitinylation assay (TR-FRET); assay type: biochemical; conditions: for Parkin activity in an auto-ubiquitination assay: pUb activated Parkin, E1-E2 cascade, TR-FRET signal, FIG. 3, FIG. 5
# T2 construct: Enzyme 3: Parkin-His tagged 203 μM (10.5 mg/ml) Supplied by An2H
# Source text: A Parkin pUB Auto-ubiquitinylation Assay is used to evaluate a candidate compound's potency to activate Parkin's ability to Auto-ubiquitinylate itself.
# The principle of this assay is that the E3 Ligase Parkin catalyzes the transfer of Ubiquitin to target proteins, but also has the ability to auto-ubiquitinylate itself. The phospho-Ubiquition (pUb) added to the assay alters the Parkin to a state where small molecule activators can enable the Parkin to auto-ubiquitinylate though the E1-E2 cascade reaction. The use of a Eu cryptate Ubiquition and anti 6His-d2 that binds to the His tagged Parkin will give a signal when the Eu cryptate Ubiquition is auto-ubiquitinylate onto the Parkin which can be monitored by TR-FRET.
# Similar to the Activity-based probe assay in Examples 2 and 3, screening for activating compounds can be distinguished from the controls as follows: • 100% activation signal=pUb activated Parkin+40 nM control activator in DMSO. • 0% activation signal=pUb activated Parkin+DMSO only. • Parkin activators can be identified by an increase of the 0% activation signal TR-FRET signal. […]
# Assay Procedure: • 1) Load assay plate wells with 4.9 μl 400.0 nM Parkin, 800 nM pUb in reaction buffer by use of Bravo. • 2) Deliver 0.1 μl 100× activator candidates in DMSO by use of HP D-300 compound dispenser. […] Add each compound and control in duplicate wells. • 3) Spin 1000 rpm, 2 minutes, at room temp. • 4) Incubate plate for 15 minutes at room temp. • 5) Add 5 μl 10 nM E1, 100 nM E2, 17.6 nM Ubiquitin Eu and 2 mM ATP in Reaction Buffer by use of Bravo. • 6) Spin 1000 rpm, 2 minutes, at room temp. • 7) Incubate plate for 120 minutes at room temp. • 8) Add 10 μl 13.4 nM anti his d2 in detection buffer by use of Bravo. • 9) Spin 1000 rpm, 2 minutes, at room temp. • 10) Incubate plate for 60 minutes at room temp. • 11) Read plates on Perkin Elmer Envision instrument.
# as §1
# Parkin ligase [3] = biological target: T1, Parkin ligase; assay: Tandem mass spectrometry of Parkin ligase incubated with compound, after proteolytic digestion; assay type: binding; conditions: tandem mass spectrometry of proteolytic fragments
# Description: Parkin ligase was incubated with AH007 compound, and the mixture was then subject to tandem mass spectometry analysis after proteolytic digestion to produce fragments of Parkin ligase. […] Compound An2H07 is also fragmented when analyzed by mass spectrometry. Therefore, characteristic pieces of the compound AH007 that are attached to specific residues of Parkin can also be identified. These fragments were characterized for alterations in fragment size indicative of bound small molecule of the predicted molecular weight of AH007. The mass spectrometry data identified three specific fragments of AH007 at two specific residues of Parkin ligase. The data identified a fragment of 253.08-256.09 of AH007 compound attached to cysteine residue 377 of Parkin ligase (C377) and a fragment of 343.14-346.14 of AH007 compound attached to C377. The data also identified a fragment of 253.08-256.09 of AH007 compound attached to cysteine residue 59 of Parkin ligase (C59). […] It is also believed that at least C377 is included in ZnF domains of human Parkin Ligase, and thus accords with the theory that cysteine residues in the flexible Parkin ligase ZnF domains are vulnerable for attachment and/or interruption by small molecule candidates. Peptide fragments of Parkin comprising C59 and/or C377 will be useful to design further binding assays and selection of additional modulating agents.
Compound,Parkin Ligase reaction with the Activity-based Ubiquitin vinyl sulfone probe (Parkin ligase [1]),"parkin activation in an auto-ubiquitination assay, compound with pUB (Parkin ligase [2]; compound together with pUB, FIGS. 4A and 4B)",Parkin activity in an auto-ubiquitination assay (Parkin ligase [2]),binding residues of Parkin ligase for the compound (Parkin ligase [3])
"O=C(Nc1nc(NC(=O)c2ccccc2)n(-c2ccccc2)n1)c1ccccc1 [AH001, N,N′-(1-phenyl-1H-1,2,4-triazole-3,5-diyl)dibenzamide]",increases the Parkin Ligase reaction,synergistically increases parkin activation,increases Parkin activity,
"Cc1nc2c(-c3ccccc3)c(C)nn2c(S)c1Cc1ccccc1 [AH007, 6-benzyl-2,5-dimethyl-3-phenylpyrazolo[1,5-a]pyrimidine-7-thiol]",increases the Parkin Ligase reaction,,increases Parkin activity,binds and/or attaches to two specific sites in Parkin ligase: C59 and C377
